Among the test systems are Acinetobacter baumannii; Pseudomonas aeruginosa; Escherichia coli B; Bacillus subtilis 168; Staphylococcus aureus.
Common to all, as to assay: ≥ marks a high value that may be exact or a test limit, other limits are often not marked, values filed in µg/mL are converted to µM
Assay [1] has as its system Staphylococcus aureus ATCC 25923.
In assay [2] the test system is Escherichia coli ATCC 25922.
The subject of assay [3] is Pseudomonas aeruginosa ATCC 9027.
For assay [4], the system named is Klebsiella pneumoniae ATCC 700603.
The test system of assay [5] is Acinetobacter baumannii ATCC 19606.
The test system of assay [6] is Pseudomonas aeruginosa ATCC 27853.
In assay [7] the test system is Candida albicans ATCC 10231.
The test system of assay [8] is Escherichia coli DH5alpha.

MIC data for six compounds are collected here from DBAASP.

Structures are written as SMILES. Values after ≈ are worked out from the molar mass of the structure shown.

Usually MIC stands for the smallest concentration in the dilution series that meets the test's criterion for growth inhibition. A low value points to a more susceptible organism. For the compound `CC[C@H](C)[C@H](NC(=O)[C@H](C)N)C(=O)N[C@@H](CC(C)C)C(=O)N[C@@H](CCCN=C(N)N)C(=O)N[C@@H](CCCCN)C(=O)N[C@@H](C)C(=O)N[C@H](C(=O)N[C@@H](CCCN=C(N)N)C(=O)N[C@@H](CCCN=C(N)N)C(=O)N[C@@H](CC(C)C)C(=O)N[C@H](C(=O)N[C@@H](CCC(N)=O)C(=O)N[C@@H](CC(C)C)C(=O)N[C@H](C(=O)N[C@H](C(=O)N[C@@H](CO)C(=O)NCC(=O)O)C(C)C)[C@@H](C)CC)C(C)C)[C@@H](C)O` [AILRKATRRLVQLIVSG], the MIC is greater than 25 µM in assay [1]; 25 µM (≈ 47.4 µg/mL) in the assay with Acinetobacter baumannii; greater than 25 µM in assay [2]; greater than 25 µM in assay [3]; greater than 25 µM in [4].
With `CC(C)C[C@H](NC(=O)[C@H](Cc1ccc(O)cc1)NC(=O)[C@H](CCCCN)NC(=O)[C@H](CC(C)C)NC(=O)[C@H](CC(C)C)NC(=O)[C@H](CCCCN)NC(=O)[C@H](CCCCN)NC(=O)[C@H](Cc1ccccc1)NC(=O)[C@H](CC(C)C)NC(=O)[C@H](CCCN=C(N)N)NC(=O)[C@@H](N)CCCCN)C(=O)N[C@@H](CCCN=C(N)N)C(=O)N[C@@H](CCCCN)C(=O)N[C@@H](Cc1ccccc1)C(=O)O` [KRLFKKLLKYLRKF], the minimal inhibitory concentration (MIC) was determined as 1.06 µM (≈ 2 µg/mL) in assay [5]; 0.531 µM (≈ 1 µg/mL) in [1]; 2.13 µM (≈ 4 µg/mL) against Pseudomonas aeruginosa; 1.06 µM (≈ 2 µg/mL) against Acinetobacter baumannii; 1.06 µM (≈ 2 µg/mL) in [6]; 0.531 µM (≈ 1 µg/mL) in assay [2]. Further, the MIC in [7] turned out to be 2.13 µM (≈ 4 µg/mL).
For `CC[C@H](C)[C@H](NC(=O)CNC(=O)[C@H](CCCN=C(N)N)NC(=O)[C@H](Cc1ccc(O)cc1)NC(=O)[C@@H](NC(=O)[C@@H](NC(=O)[C@H](CCCN=C(N)N)NC(=O)[C@H](Cc1ccccc1)NC(=O)[C@@H](NC(=O)[C@H](Cc1c[nH]c2ccccc12)NC(=O)[C@H](Cc1c[nH]c2ccccc12)NC(=O)[C@@H](N)CCCCN)C(C)C)C(C)C)C(C)C)C(=O)N[C@H](C(=O)N[C@@H](Cc1ccc(O)cc1)C(=O)N[C@@H](CCCN=C(N)N)C(=O)N[C@@H](CCCN=C(N)N)C(=O)N[C@H](C(=O)N[C@@H](CCCN=C(N)N)C(=O)N[C@@H](Cc1c[nH]c2ccccc12)C(=O)N[C@@H](CCCCN)C(=O)O)C(C)C)C(C)C` [KWWVFRVVYRGIVYRRVRWK], the MIC in assay [8] was found to be 12.5 µM (≈ 34.4 µg/mL).
On to `CC[C@H](C)[C@H](NC(=O)[C@H](CCCCN)NC(=O)[C@H](CCCCN)NC(=O)[C@H](Cc1c[nH]c2ccccc12)NC(=O)[C@@H](NC(=O)[C@@H](N)CC(N)=O)C(C)C)C(=O)N[C@@H](CC(C)C)C(=O)NCC(=O)N[C@@H](CCCCN)C(=O)N[C@H](C(=O)N[C@H](C(=O)N[C@@H](CCCCN)C(=O)N[C@H](C(=O)N[C@H](C(=O)N[C@@H](CCCCN)C(N)=O)C(C)C)C(C)C)[C@@H](C)CC)[C@@H](C)CC` [NVWKKILGKIIKVVK], for which the MIC was 23.1 µM (≈ 40.8 µg/mL) with Pseudomonas aeruginosa, 1.4 µM (≈ 2.47 µg/mL) in the assay on Escherichia coli B, 0.7 µM (≈ 1.24 µg/mL) with Bacillus subtilis 168 and 9 µM (≈ 15.9 µg/mL) in the assay with Staphylococcus aureus.
For the compound `CC[C@H](C)[C@H](NC(=O)[C@H](Cc1cnc[nH]1)NC(=O)[C@H](CCCCN)NC(=O)[C@H](CC(C)C)NC(=O)[C@H](CC(C)C)NC(=O)[C@H](CO)NC(=O)[C@H](CCSC)NC(=O)[C@H](Cc1c[nH]c2ccccc12)NC(=O)[C@H](CCCCN)NC(=O)[C@@H](N)CO)C(=O)N[C@@H](CC(C)C)C(=O)N[C@@H](CCCCN)C(N)=O` [SKWMSLLKHILK], the MIC is 50 µM (≈ 74.1 µg/mL) against Pseudomonas aeruginosa, 2.3 µM (≈ 3.41 µg/mL) in the assay with Escherichia coli B, 1.1 µM (≈ 1.63 µg/mL) in the assay with Bacillus subtilis 168 and 9.2 µM (≈ 13.6 µg/mL) with Staphylococcus aureus.
On the same counts, the results for `CC[C@H](C)[C@H](NC(=O)[C@H](CCCCN)NC(=O)[C@@H]1CCCN1C(=O)[C@H](CC(C)C)NC(=O)[C@@H](NC(=O)[C@H](CCCCN)NC(=O)[C@H](CCCCN)NC(=O)[C@H](Cc1c[nH]c2ccccc12)NC(=O)[C@H](CC(N)=O)NC(=O)[C@@H](N)C(C)C)C(C)C)C(=O)N[C@H](C(=O)N[C@@H](CCCCN)C(=O)N[C@H](C(=O)N[C@@H](C)C(=O)N[C@@H](CCCCN)C(N)=O)C(C)C)[C@@H](C)CC` [VNWKKVLPKIIKVAK] are 100 µM (≈ 176 µg/mL), 5 µM (≈ 8.82 µg/mL), 0.9 µM (≈ 1.59 µg/mL) and greater than 100 µM.
